Test results as given in patent US6949583B2, “Aminoalkoxybenzoyl-benzofuran or benzothiophene derivatives, method of preparing same and compositions containing same” (Sanofi-Synthelabo, priority 2000, dated 2005).
Structures can show the parent of a compound that is named as a salt.

melting point | SMILES
155 to 157 °C | CCCCc1oc2cc(C)c(C(=O)OC(C)C)cc2c1C(=O)c1ccc(CCCN(CC)CC)cc1 (as salt: oxalate)
128 to 130 °C | CCCCc1oc2ccc(C(=O)OC)cc2c1C(=O)c1ccc(CC(O)CN(CCCC)CCCC)cc1 (stereo not shown) (as salt: oxalate)
155 to 157 °C | CCCCN(CCCC)CCCc1ccc(C(=O)c2c(CCC)oc3ccc(C(=O)OC(C)C)cc23)cc1 (as salt: oxalate)
119 to 121 °C | CCCCc1oc2ccc(C(=O)OC(C)C)cc2c1C(=O)c1cc(C)c(CCCN(CCCC)CCCC)c(C)c1 (as salt: oxalate)
124 to 126 °C | CCCCCc1oc2ccc(C(=O)OC(C)C)cc2c1C(=O)c1ccc(CCCN(CCCC)CCCC)cc1 (as salt: oxalate)
124 to 126 °C | CCCCc1oc2ccc(C(=O)OC)cc2c1C(=O)c1ccc(C(O)CN(CCCC)CCCC)cc1 (stereo not shown) (as salt: oxalate)
124 to 126 °C | CCCCN(CCCC)CCCc1ccc(C(=O)c2c(C3CCCCC3)oc3ccc(C(=O)OC(C)C)cc23)cc1 (as salt: oxalate)
105 to 107 °C | CCCCN(CCCC)CCCc1ccc(C(=O)c2c(CC(C)C)oc3ccc(C(=O)OC(C)C)cc23)cc1 (as salt: oxalate)
75 to 78 °C | CCCCc1oc2ccc(C(=O)OC(C)C)cc2c1C(=O)c1ccc(CCCN(CCCC)CCCC)o1 (as salt: oxalate)
90 to 91 °C | CCCCc1oc2ccc(C(=O)OC(C)C)cc2c1C(=O)c1ccc(CC(O)CN(CCCC)CCCC)cc1 (stereo not shown) (as salt: oxalate)
96 to 97 °C | CCCCc1oc2ccc(C(=O)OC)cc2c1C(=O)c1ccc(CN(CCCC)CCCC)cc1 (as salt: oxalate)
107 to 108 °C | CCCCc1oc2ccc(C(=O)OC(C)C)cc2c1C(=O)c1ccc(CN(CCCC)CCCC)cc1 (as salt: oxalate)
107 to 108 °C | CCCCN(CCCC)CCCc1ccc(C(=O)c2c(CCC(=O)OC)oc3ccc(C(=O)OC(C)C)cc23)cc1 (as salt: oxalate)
85 to 88 °C | CCCCc1oc2ccc(C(=O)OC(C)C)cc2c1C(=O)c1ccccc1CCCN(CCCC)CCCC (as salt: oxalate)
150 to 151 °C | CCCCc1oc2ccc(C(=O)OC(C)C)cc2c1C(=O)c1ccc([C@@H]([C@@H](C)O)N(CCCC)CCCC)cc1 (as salt: oxalate)
87 to 90 °C | CCCCc1oc2ccc(C(=O)OC(C)C)cc2c1C(=O)c1cccc(CCCN(CCCC)CCCC)c1 (as salt: oxalate)

melting point | SMILES
220 to 221 °C | CCCCc1oc2ccc(C(=O)OC)cc2c1C(=O)c1ccc(CN2CCN(CC)CC2)cc1 (as salt: oxalate)
107 to 108 °C | CCCCN(CCCC)CCCc1ccc(C(=O)c2c(C)oc3ccc(C(=O)OC(C)C)cc23)cc1 (as salt: oxalate)
222 to 224 °C | CCCCc1oc2ccc(C(=O)OC(C)C)cc2c1C(=O)c1ccc(CN2CCN(CC)CC2)cc1 (as salt: oxalate)
105 °C | CCCCN(CCCC)CCCc1ccc(C(=O)c2c(CCCC(=O)OC)oc3ccc(C(=O)OC(C)C)cc23)cc1 (as salt: oxalate)
107 to 108 °C | CCCCc1oc2ccc(C(=O)OC(C)C)cc2c1C(=O)c1ccc([C@@H](O)[C@@H](C)N(CCCC)CCCC)cc1 (as salt: oxalate)
86 to 89 °C | CCCCc1sc2ccc(C(=O)OC(C)C)cc2c1C(=O)c1ccc(CCCN(CCCC)CCCC)cc1 (as salt: oxalate)
92 to 93 °C | CCCCc1oc2ccc(C(=O)OC(C)C)cc2c1C(=O)c1ccc(C(C)(C)CCN(CCCC)CCCC)cc1 (as salt: oxalate)
73 °C | CCCCc1oc2ccc(C(=O)OC(C)C)cc2c1C(=O)c1ccc(COCCN(CCCC)CCCC)cc1 (as salt: oxalate)
100 °C | CCCCc1oc2ccc(C(=O)OC(C)C)cc2c1C(=O)c1ccc(CCCN(CCCC)CCCC)s1 (as salt: oxalate)
73 to 74 °C | CCCCc1oc2ccc(C(=O)OC(C)C)cc2c1C(=O)c1ccc(COCCCN(CCCC)CCCC)cc1 (as salt: oxalate)
134 to 135 °C | CCCCc1oc2ccc(C(=O)OC(C)C)cc2c1C(=O)c1ccc(C(O)CN(CCCC)CCCC)cc1 (stereo not shown) (as salt: oxalate)
106 to 108 °C | CCCCN(CCCC)COCc1ccc(C(=O)c2c(C(C)C)oc3ccc(C(=O)OC(C)C)cc23)cc1 (as salt: oxalate)
106 to 108 °C | CCCCc1oc2ccc(C(=O)OC(C)C)cc2c1C1(c2ccc(CCCN(CCCC)CCCC)cc2)OCCO1 (as salt: oxalate)
87 to 89 °C | CCCCc1oc2ccc(C(=O)OC(C)C)cc2c1C(=O)c1cc(Cl)c(CCCN(CCCC)CCCC)c(Cl)c1 (as salt: oxalate)
133 to 135 °C | CCCCc1oc(C)c(C(=O)OCC)c1C(=O)c1ccc(CCCN(CCCC)CCCC)cc1 (as salt: oxalate)
